{
  "source": "paper PMC11357992",
  "about": "“Non-invasive mapping of systemic neutrophil dynamics upon cardiovascular injury” (Nature Cardiovascular Research, 2023)",
  "key": {"human neutrophils [1]": {"tested_on": "human neutrophils", "test": "Cell surface activation markers CD11b, CD63, CD66b on human neutrophils", "type": "cell-based", "details": "50 µl ml^−1 hNPPFCs or 1 µg ml^−1 LPS, 1 h, 37 °C", "method": "A total of 1 × 10^6 isolated human neutrophils were incubated with 50 µl ml^−1 ^hNPPFCs, 1 µg ml^−1 LPS or only DMEM for 1 h at 37 °C followed by intense washing with MACS buffer. Afterward, 1 × 10^5 cells were transferred into 96-well plates and stained for CD11b and CD63 (eBioscience, clone HSC6) or CD66b (eBioscience, clone G10F5) for 20 min at 4 °C. After two washing steps with MACS buffer, cells were analyzed by flow cytometry. A total of 1 × 10^5 isolated murine neutrophils were transferred into a 96-well plate and stained for CD11b, CD62L and CD63 for 20 min at 4 °C. After two washing steps with MACS buffer, cells were analyzed by flow cytometry."}, "human neutrophils [2]": {"tested_on": "human neutrophils", "test": "Migration of human neutrophils toward IL-8 (Boyden chamber)", "type": "cell-based", "details": "50 µl hNPPFCs, 1 h, 37 °C; 100 ng ml^−1 IL-8", "method": "A total of 1 × 10^6 isolated human neutrophils were incubated with or without 50 µl ^hNPPFCs for 1 h at 37 °C in 1 ml DMEM. After washing with DMEM, 1 × 10^5 of these cells were placed in a Boyden chamber containing 200 µl DMEM. The lower part of the chamber contained 100 ng ml^−1 IL-8 in 1 ml DMEM. After 1 h in an incubator, the flow through was collected, and the number of neutrophils was counted by flow cytometry. Murine neutrophils were isolated from Matrigel–LPS plugs and stained for Ly6G. Afterward, cells were washed twice, and the number of neutrophils was determined by flow cytometry."}, "[3]": {"test": "19F content of PFCs by 19F MRI", "type": "physicochemical", "details": "panel B raw data, single replicates #1-#3", "method": "Extended Data Fig. 8 Physicochemical properties and cellular uptake of ^hNPPFCs. a, Cellular uptake of ^hNPPFCs by human monocyte subsets and neutrophils: Human immune cells isolated from the blood of healthy volunteers were incubated with ^hNPPFCs. Subsequently, cells were stained with CD11b, CD14 and CD16 to differentiate between neutrophils (red), classical monocytes (gray) and non-classical monocytes (blue) and the cells were analyzed by flow cytometry. The cellular uptake of ^hNPPFCs was determined under unstimulated conditions (top) and after treatment with 1 µg/ml LPS (bottom). b, Physicochemical properties of the generated nanotracers: Characterization of size, size distribution and ζ potential of ^MalPFCs and targeting PFCs (^hNPPFCs, ^ConPFCs) by dynamic light scattering (DLS). The rhodamine fluorescence signal of the PCS was determined by IVIS imaging and the ^19F content by ^19F MRI. c-e, Cryo transmission electron microscopy of the generated nanotracers: c, Cryo transmission electron microscopy (cryo-TEM) of ^hNPPFCs and ^ConPFCs. Graphs: The diameter of the PFCs was determined manually from three images categorized into 25 nm groups. […] The number of PFCs and liposomes was manually determined (n = 4/5 images). […]"}, "murine neutrophils": {"tested_on": "murine neutrophils", "test": "Ex vivo mNPPFC uptake by neutrophils from mice with Matrigel-LPS plug, flow cytometry", "type": "cell-based, mouse", "parameters": "ex vivo uptake by murine neutrophils, Ctrl - mNPPFCs, raw data: unit not given here", "details": "for ex vivo uptake by murine neutrophils, Ctrl - mNPPFCs, raw data: Ctrl mice, single samples #1-#5", "method": "To induce defined inflammatory foci, we adopted a recently developed model of localized subcutaneous inflammation. To this end, ice-cold Matrigel (Corning) was doped with LPS (1 µg µl^−1; Salmonella typhimurium, Sigma-Aldrich) and subcutaneously (s.c.) implanted into the neck of the mice. Twenty-four hours after implanting the plug, neutrophils were isolated from the blood and incubated ex vivo with ^mNPPFCs or ^ConPFCs. In separate experiments, 24 h after implantation, ^mNPPFCs or ^ConPFCs were injected intravenously, and immune cells were isolated from the blood. In further experiments, 1 d after plug injection, mice received 1 mmol per kg BW ^mNPPFCs, and, 24 h later, the bone marrow was analyzed by ^1H/^19F MRI. Thereafter, mice were killed, and neutrophils were isolated from the bone marrow for determination of cell numbers. In each case, immune cells were analyzed by flow cytometry.\nA total of 1 × 10^6 cells were incubated with 10 µl of the emulsion over a period of 80 min at 37 °C. At distinct time points, 50 µl of the samples were transferred into 2 ml of ice-cold MACS buffer and analyzed for rhodamine fluorescence by flow cytometry."}},
  "note": "“And” between values parts separate entries of the source, which are not always exact repeats. Equal entries are not always repeated. Where no end group is shown, it is not given here. Side-chain parts run from the residue outwards. rhodamine‑labelled PEGylated perfluoro‑15‑crown‑5 ether nanoemulsion = not defined here; carboxyfluorescein = N-terminal fluorescence label (CF)",
  "data": [
    {"substance": "hNPPFCs: PEGylated rhodamine-labeled perfluorocarbon nanoemulsion coupled with human neutrophil-specific peptide hNP (carboxyfluorescein-DLVTSKLQVGGGC; also: C-terminal Cys coupled via maleimide-PEG2000-DSPE to rhodamine-labelled perfluorocarbon nanoemulsion)", "values": [
      {"measurement": "expression of CD11b, CD63 and CD66b on human neutrophils", "setting": "human neutrophils [1]", "result": "did not affect expression of these proteins"},
      {"measurement": "migration of human neutrophils toward IL-8", "setting": "human neutrophils [2]", "result": "no evidence for any changes in their chemotactic properties"},
      {"measurement": "19F amount", "setting": "[3]", "result": "6.421 and 6.014 and 6.958"}
    ]},
    {"substance": "mNPPFCs: PEGylated rhodamine-labeled perfluoro-15-crown-5 ether nanoemulsion (maleimide PFCs) coupled with murine neutrophil-specific peptide mNP (carboxyfluorescein-DFYKPMPNLRITGGGC([maleimide‑PEG2000‑DSPE-rhodamine‑labelled PEGylated perfluoro‑15‑crown‑5 ether nanoemulsion]); reading uncertain; also: printed as DFYKPMPNLRIT-GGG-C)", "values": [
      {"measurement": "ex vivo uptake by murine neutrophils under LPS-stimulated versus unstimulated conditions", "setting": "murine neutrophils; 24 h after Matrigel-LPS implantation", "result": "more rapid and potent uptake"},
      {"measurement": "ex vivo uptake by murine neutrophils, Ctrl - mNPPFCs, raw data", "setting": "murine neutrophils; time 0", "result": "101 and 127 and 111 and 105"},
      {"measurement": "ex vivo uptake by murine neutrophils, Ctrl - mNPPFCs, raw data", "setting": "murine neutrophils; time 40", "result": "4266 and 3190 and 3194 and 3820 and 4700"}
    ]}
  ]
}
